Measured values from ChEMBL document CHEMBL1131360, “Bis-S-acyl-2-thioethyl (SATE)-bearing monophosphate prodrug of beta-L-FD4C as potent anti-HBV agent” (Bioorg Med Chem Lett, 1998).

Key:
HepG2 [1] = assay: Tested for cytotoxicity in human hepatoma cell (2.2.15); assay type: functional, cell-based
Colon 26 [2] = assay: Tested for cytotoxicity in murine colon cancer (C26); assay type: functional, cell-based; conditions: Mus musculus
CCRF-CEM = assay: Tested for cytotoxicity in human T-cell lymphoblastic leukemia cell line (CEM); assay type: functional, cell-based
B16 [3] = assay: Tested for cytotoxicity in murine melanoma (B16); assay type: functional, cell-based; conditions: Mus musculus
M109 [4] = assay: Tested for cytotoxicity in murine lung carcinoma (M109); assay type: functional, cell-based; conditions: Mus musculus
HepG2 [5] = assay: Tested for the ability to inhibit HBV DNA synthesis at a concentration of 4 nM using human hepatoblastoma cell line HepG2 2.2.15; assay type: functional
Colon 26 [6] = assay: Tested for cytotoxicity in murine colon cancer (C26); not cytotoxic at the highest concentration tested (70 uM); assay type: functional, cell-based, Mus musculus
HepG2 [7] = assay: Tested for the ability to inhibit extracellular HBV DNA synthesis at a concentration of 10 nM; assay type: functional; conditions: Homo sapiens
HepG2 [8] = assay: Tested for the ability to inhibit HBV replication at a concentration of 19 nM using human hepatoblastoma cell line HepG2 2.2.15; assay type: functional
HepG2 [9] = assay: Tested for cytotoxicity in human hepatoma cell (2.2.15); not cytotoxic at the highest concentration tested (70 uM); assay type: functional, cell-based
B16 [10] = assay: Tested for cytotoxicity in murine melanoma (B16); not cytotoxic at the highest concentration tested (70 uM); assay type: functional, cell-based, Mus musculus
M109 [11] = assay: Tested for cytotoxicity in murine lung carcinoma (M109); not cytotoxic at the highest concentration tested (70 uM); assay type: functional, cell-based, Mus musculus
HepG2 [12] = assay: Tested for effective concentration against HBV treated with drug every 3 days for 9 days using human hepatoblastoma cell line HepG2 2.2.15; assay type: functional, cell-based
HepG2 [13] = assay: Tested for the ability to inhibit HBV DNA synthesis at a concentration of 7 nM using human hepatoblastoma cell line HepG2 2.2.15; assay type: functional
HepG2 [14] = assay: Tested for the ability to inhibit HBV replication at a concentration of 40 nM using human hepatoblastoma cell line HepG2 2.2.15; assay type: functional

Compound | IC50 (HepG2 [1]) [µM] | IC50 (Colon 26 [2]) [µM] | IC50 (CCRF-CEM) [µM] | IC50 (B16 [3]) [µM] | IC50 (M109 [4]) [µM] | inhibition at 0.004 µM (HepG2 [5]) [%] | IC50 (Colon 26 [6]) | inhibition at 0.01 µM (HepG2 [7]) [%] | inhibition at 0.019 µM (HepG2 [8]) [%] | IC50 (HepG2 [9]) | IC50 (B16 [10]) | IC50 (M109 [11]) | EC50 (HepG2 [12]) [µM] | inhibition at 0.007 µM (HepG2 [13]) [%] | inhibition at 0.04 µM (HepG2 [14]) [%]
CC(=O)SCCOP(=O)(OCCS)OC[C@H]1C=C[C@@H](n2cc(F)c(N)nc2=O)O1 (some centres not stated) | > 70 | > 70 | 52 | > 70 | > 70 |  |  |  |  |  |  |  |  |  | 
CC(=O)SCCOP(=O)(OCCSC(C)=O)OC[C@H]1CC[C@@H](n2cnc3c(N)ncnc32)O1 | > 70 | > 70 | 13 | > 70 | > 70 |  |  |  |  |  |  |  |  |  | 
CC(=O)SCCOP(=O)(OCCSC(C)=O)OC[C@H]1C=C[C@@H](n2cc(F)c(N)nc2=O)O1 |  |  | 52 |  |  | 50 | Not Active | 85 | 90 | Not Active | Not Active | Not Active | 0.002 |  | 
Nc1nc(=O)n([C@@H]2C=C[C@H](CO)O2)cc1F [ELVUCITABINE] |  |  | 13 |  |  |  | Not Active |  |  | Not Active | Not Active | Not Active | 0.017 | 50 | 70
